Like-named read-outs stand apart in the source and are kept apart here. Each block holds one compound with its values, some of them ahead of it.
Key:
[1] = system: yield of neutrophils; conditions: mouse; Cecconi et al. 1994; cited from earlier work
[2] = target: T1, P-selectin (Homo sapiens, UniProt P16109); conditions: cited from earlier work
T1 sequence (P16109 42-830): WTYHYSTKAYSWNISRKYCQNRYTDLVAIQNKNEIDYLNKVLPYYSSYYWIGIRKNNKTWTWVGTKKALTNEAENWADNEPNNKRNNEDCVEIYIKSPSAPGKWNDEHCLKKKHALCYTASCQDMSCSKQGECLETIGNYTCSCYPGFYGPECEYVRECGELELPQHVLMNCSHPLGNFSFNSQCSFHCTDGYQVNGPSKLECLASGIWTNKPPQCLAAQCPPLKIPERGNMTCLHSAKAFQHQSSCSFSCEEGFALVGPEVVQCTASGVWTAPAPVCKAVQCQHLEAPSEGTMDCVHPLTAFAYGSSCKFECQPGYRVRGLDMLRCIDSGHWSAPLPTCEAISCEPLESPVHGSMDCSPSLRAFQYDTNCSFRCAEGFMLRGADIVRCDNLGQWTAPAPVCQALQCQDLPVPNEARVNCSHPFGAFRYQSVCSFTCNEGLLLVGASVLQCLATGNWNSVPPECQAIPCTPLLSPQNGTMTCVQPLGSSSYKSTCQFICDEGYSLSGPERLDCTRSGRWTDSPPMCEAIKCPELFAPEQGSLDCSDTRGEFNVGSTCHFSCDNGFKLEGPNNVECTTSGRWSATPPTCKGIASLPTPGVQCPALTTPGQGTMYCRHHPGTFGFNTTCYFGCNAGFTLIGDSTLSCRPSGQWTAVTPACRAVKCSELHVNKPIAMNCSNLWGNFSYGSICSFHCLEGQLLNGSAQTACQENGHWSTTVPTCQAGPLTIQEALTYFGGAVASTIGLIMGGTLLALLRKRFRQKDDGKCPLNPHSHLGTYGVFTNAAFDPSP

[3] = target: T2, recombinant P-selectin (Homo sapiens, UniProt P16109); experiment: In vitro assay for inhibition of P-selectin binding (HSO3Le^a-PAA-biotin binding to immobilized recombinant selectin); conditions: for inhibition of recombinant P-selectin in the cell-free assay: result in words
T2 construct: Recombinant ZZ-selectin (monovalent) lacking the transmembrane and cytosolic domains was produced as C-terminal chimera with the ZZ domain of protein A; made in house
T2 sequence (P16109 42-771 limits assumed): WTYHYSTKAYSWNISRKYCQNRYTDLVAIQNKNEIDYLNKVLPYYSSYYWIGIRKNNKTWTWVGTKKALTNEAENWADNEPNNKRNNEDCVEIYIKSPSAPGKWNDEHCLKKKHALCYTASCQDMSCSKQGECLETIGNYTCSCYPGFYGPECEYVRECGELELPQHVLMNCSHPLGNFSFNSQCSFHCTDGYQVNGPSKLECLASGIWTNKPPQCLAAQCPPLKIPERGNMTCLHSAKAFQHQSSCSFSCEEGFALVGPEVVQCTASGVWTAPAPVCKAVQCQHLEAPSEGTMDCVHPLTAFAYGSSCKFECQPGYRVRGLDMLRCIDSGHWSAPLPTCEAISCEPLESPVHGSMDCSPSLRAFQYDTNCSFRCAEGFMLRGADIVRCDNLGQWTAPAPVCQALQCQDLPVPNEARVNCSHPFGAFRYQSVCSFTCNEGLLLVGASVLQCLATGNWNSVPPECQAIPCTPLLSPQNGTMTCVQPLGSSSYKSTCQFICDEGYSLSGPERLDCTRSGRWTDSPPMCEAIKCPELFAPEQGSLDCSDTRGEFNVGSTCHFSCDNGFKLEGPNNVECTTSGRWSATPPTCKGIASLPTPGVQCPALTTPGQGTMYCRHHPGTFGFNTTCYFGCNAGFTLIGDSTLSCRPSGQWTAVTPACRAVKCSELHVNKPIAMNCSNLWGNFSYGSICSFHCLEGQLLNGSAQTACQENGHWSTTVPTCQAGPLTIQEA
Source text: The in vitro test-system is based on the inhibition of HSO3Le^a-PAA-biotin binding to recombinant P-selectin. For details, see example 1.
All PAA-based neoglycoconjugates were from 30 to 40 kDa and obtained according to standard methods (Gordeeva, E. A., Tuzikov, A. B., Galanina, O. E., Pochechueva, T. V. & Bovin, N. V. (2000). Microscale synthesis of glycoconjugate series and libraries. Anal. Biochem. 278, 230-232; Bovin, N. V., Korchagina, E. Yu., Zemlyanukhina, T. V., Byramova, N. E., Galanina, O. E., Zemlyakov, A. E., Ivanov, A. E., Zubov, V. P., and Mochalova, L. V. (1993) Synthesis of polymeric neoglycoconjugates based on N-substituted polyacrylamide. Glycoconj. J. 10, 142-151). sTyr-PAA (containing 80 mol % sTyr) was synthesized using 200% excess of sTyr in relation to the activated polymer. The degree of sTyr substitution was determined by the conjugate's increase in weight. Recombinant ZZ-selectin (monovalent) lacking the transmembrane and cytosolic domains was produced as C-terminal chimera with the ZZ domain of protein A (Priest, R., Nawaz, S., Green, P. M., and Bird, M. I. (1995). Adhesion of eosinophils to E- & P-selectin. Biochem. Soc. Trans. 23, 162S). Tripeptide Tyr-Tyr-Tyr (Bachem, Germany) and aminoglucitol (Sigma) were per-O-sulfated with SO3/Py complex (Field, R. A., Otter, A., Fu, W., Hindsgaul, O. Carbohydr. Res. 1995, 276, 347-363). Fucoidan was purchased from Sigma (USA).
The assay was performed on 96-Well plates. Human IgG was used as a primary coating reagent to immobilize recombinant selectin via the ZZ-domain of the fusion protein. The working concentration of selectin was 3 ng/well. […] Details of this assay were published in (Game, S. M., Rajapurohit, P. K., Clifford, M., Bird, M. I., Priest, R., Bovin, N. V., Nifant'ev, N. E., O'Beime, G., and Cook, N. D. (1998) Scintillation proximity assay for E-, P-, and L-selectin utilizing polyacrylamide-based neoglycoconjugates as ligands. Anal. Biochem. 258, 127-135; Tatyana V. Pochechueva, Oxana E. Galanina, Michael I. Bird, Nikolay E. Nifant'ev, Nicolai V. Bovin. Assembly of P-Selectin Ligands on a Polymeric Template, Chem&Biol, Vol. 9, 2002, p. 757-762; Natalia Ushakova, Marina Preobrazhenskaya, Mike I. Bird, Richard Priest, A. V. Semenov, A. V. Mazurov, Nikolay Ni-fant'ev, Tatyana Pochechueva, Oxaha Galanina, Nicolai Bovin. Monomeric and Multimeric Blockers of Selectins: Comparison of In Vitro and In Vivo Activity/Biol. Chem. Hoppe Seyler, 2002 submitted).

[4] = system: Peptone-induced acute rat peritonitis; experiment: Rat peritoneal inflammation model (peptone-induced acute peritonitis, neutrophil extravasation); format: in vivo
Experimental: Acute rat peritonitis was induced as described in (Preobrazhenskaya, M. E., Berman, A. E., Mikhailov, V. I., Ushakova, N. A., Mazurov, A. V., Semenov, A. V., Usov, A. I., Nifant'ev, N. E., and Bovin, N. V. (1997) Fucoidan inhibits leukocyte recruitment in a model peritoneal inflammation in rat and blocks interaction of P-selectin with its carbohydrate ligand. Biochem. Mol. Biol. Int 43, 443-451) with some modifications. 10 ml of PBS containing 10% peptone was injected intraperitoneally into female Wistar rats (180-220 g). After 3 h rats were sacrificed and their peritoneal cavities were laved with 30 ml PBS containing 60 units/ml of heparin, 0.02% EDTA and 0.03% bovine serum. The total cell number in the lavage was counted and the cell suspension was concentrated by centrifugation at 400 g for 10 min. After 1:1 dilution with bovine serum smears were prepared and stained according to the Pappenheim method. Neutrophils were counted on two parallel slides and the total neutrophil number was calculated. The inhibitors were administered intravenously as a single dose in 0.3 ml sterile 0.9% NaCl 15 min after peptone injection. The same volume of NaCl solution Was injected into control animals. A difference between the control and tested groups was analyzed for statistical significance based on Student's t-test, p-values<0.05 were considered to be significant.
Peptone-induced acute rat peritonitis was characterized by neutrophil extravasation into the peritoneal cavities. […] A natural ligand such as recombinant PSGL-1 acts in a dose of about 1 mg/kg (S. P. Khor, K. McCarthy, M. Dupont, K. Murray, G. Timony. Pharmacokinetics, pharmacodynamics, allometry, and dose selection of rPSGL-Ig for phase I trial. J. Pharmacol. Exp. Ther., 293, 618-624 (2000); R. Hayward, B. Campbell, Y. K. Shin, R. Scalia, A. M. Lefer. Recombinant soluble P-selectin glycoprotein ligand-1 protects against myocardial ischemic reperfusion injury in cats. Cardiovascular Res., 41, 65-76 (1999)) which approaches the fucoidan activity under study. […]

[5] = inhibition of HSO3Le^a-PAA-biotin binding with P-selectin, means of at least triplicate determinations

Compound: O=P(O)(O)O[C@H]1[C@H](OP(=O)(O)O)[C@@H](OP(=O)(O)O)[C@H](OP(=O)(O)O)[C@@H](OP(=O)(O)O)[C@H]1OP(=O)(O)O [Inositol hexaphosphate]
- dose inhibiting the yield of neutrophils (almost half of them) [1]: about 70 mg/kg

Compound: 3-0-sulfated galactocerebroside [sulfatide]
- IC50 ([2]; Marinier et al. 1997, sulfatide and some of its synthetic analogues): 100 to 1000 nM

Compound: Fucoidan
- Mean inhibition (% to control) ([4]; Series 2, 1.0 mg per rat i.v.): 92 (p < 0.001) %
- Number of neutrophils per rat × 10^−6 ([4]; Series 2, 1.0 mg per rat i.v., mean ± SEM): 2.5 ± 0.5 × 10^−6
- blocking of the inflammation process ([4]; result in words): definitely blocked the inflammation process
- IC50 ([2]; Pochechueva et al., Ley et al. 1993, repeating hexasaccharide units): 100 nM
- IC50 [3, 5]: 100 nM
- IC50 in weight ([3]; inhibition of HSO3Le^a-PAA-biotin binding with P-selectin, weight concentration): (100 ng/ml)^2

Compound: CC(=O)NC1C(O)OC(CO)C(OC2OC(C)C(O)C(O)C2O)C1OC1OC(CO)C(O)C(OS(=O)(=O)O)C1O (centres unmarked) [HSO3Le^a, 3′-HSO3Galβ1-3(Fucα1-4)GIcNAc]
- IC50, μM [3, 5]: Nl

Results, then the compound that gave them:

- IC50, μM [3, 5]: Nl
Compound: N[C@@H](Cc1ccc(OS(=O)(=O)O)cc1)C(=O)O [sTyr, tyrosine-O-sulfate]

- IC50, μM [3, 5]: Nl
- inhibition of recombinant P-selectin in the cell-free assay [3]: unable to inhibit
Compound: Tripeptide Tyr-Tyr-Tyr per-O-sulfated with SO3/Py complex [sTyr-sTyr-sTyr]

- IC50, μM [3, 5]: Nl
- inhibition of recombinant P-selectin in the cell-free assay [3]: unable to inhibit
Compound: Hexa-O-sulfo-aminoglucitol

From patent US20050214248A1, “Non-glycosylated polyacrylamide conjugates and their use for cytoprotection” (University of Bern, priority 2002, published 2005)
